Format in all cases: cell-based, human
The subject of one experiment is CNCM I-2544. As to the kind of experiment: HLA class I induction, flow-cytometry. As to conditions: two days with IFN-α 100 U/ml, absence 305. As to the method: (§1) Melanoma cell lines were screened for their sensitivity to proliferation inhibition and HLA class I induction. The study was done of six cell lines (CNCM I-2544, CNCM I-2545, CNCM I-2546, CNCM I-2547, CNCM I-2548 and CNCM I-2549).
(§2) All these cell lines were cultured in RPMI medium supplemented with 10% FCS, glutamine (2 mM), sodium pyruvate (1 mM), non-essential amino acids and HEPES buffer (10 mM) (all from GIBCO Life Sciences, Paisley, UK). When confluent, the cells were passaged by trypsinization.
(§3) A number of established melanoma cell lines were assayed for their sensitivity to IFN-α by testing the capacity of IFN-α to inhibit their proliferation and to increase their surface expression of HLA class I determinants.

A further experiment relates to CNCM I-2545. Put plainly: HLA class I induction, flow-cytometry. As to conditions: two days with IFN-α 100 U/ml, absence 196. As to the method:
as §1, §2, §3

For the next experiment, the system named is CNCM I-2546. Put plainly: HLA class I induction, flow-cytometry. As to conditions: two days with IFN-α 100 U/ml, absence 257. As to the method: as §1, §2, §3
A further experiment concerns CNCM I-2547. Put plainly: HLA class I induction, flow-cytometry. As to conditions: two days with IFN-α 100 U/ml, absence 135. On the procedure:
as §1, §2, §3

The subject of a further experiment is CNCM I-2548. Put plainly: HLA class I induction, flow-cytometry. To be noted: two days with IFN-α 100 U/ml, absence 380. As to the method:
as §1, §2, §3

The test system of the next experiment is CNCM I-2549. As to the kind of experiment: HLA class I induction, flow-cytometry. As to conditions: two days with IFN-α 100 U/ml, absence 203. On the procedure:
as §1, §2, §3

A further experiment deals with melanoma cell lines. Put plainly: oligonucleotide array, expression of genes encoding tumor associated antigens. To be noted: six melanoma cell lines, 48 hours, 100 U/ml IFN-α. As to the method: The cell lines CNCM I-2544 (375), CNCM I-2545 (D10), CNCM I-2546 (15), CNCM I-2547 (51), CNCM I-2548 (59) and CNCM I-2549 (67) were cultured for 48 hours in the presence (+) or absence (−) of 100 U/ml IFN-α. The expression patterns of genes encoding tyrosinase, tyrosinase related protein-2 , pmel-17 and mart-1, HLA restricted, tumor associated antigens are reported. Grey bars refer to IFN-α sensitive cell lines and black bars refer to IFN-α resistant lines (see Table 1). Data are presented as average difference of signal intensity between match and mismatch probesets.
Cultured melanoma cells were harvested by scraping and total cellular RNA was extracted. […]
The normalized average difference (nAD) between the signals of the perfect and of the mismatch probesets for each gene was used as the expression level of a given gene. […] Based on nAD, change factors related to IFN-α exposure were also calculated. […]
Total cellular RNA was extracted from the sensitive and resistant melanoma cell lines identified above, reverse transcribed and processed for hybridization to an oligonucleotide array (Hu6800FL, PN 900183) containing probe sets derived from 7000 full-length human genes. Expression levels for each gene were calculated as normalized average difference (nAD, see materials and methods). […]

Regarding IFN-α, the “HLA class I induction, mean fluorescence intensity” value in the experiment with CNCM I-2544 is listed as “(442 vs. 305)”; in the experiment with CNCM I-2545, “(184 vs. 196)”; with CNCM I-2546, “(521 vs. 257)”; in the experiment on CNCM I-2547, “(980 vs. 135)”; with CNCM I-2548, “(559 vs. 380)”; with CNCM I-2549 it was “(175 vs. 203)”. Moreover, the “expression of the genes encoding TAA (MART-1/Melan-A, pmel-17, TRP-2, tyrosinase)” value in the experiment with melanoma cell lines is on record as “does not appear to influence”.

Values taken from US20030096237A1, “Determination of the ability of patients to respond to a tumor treatment” (priority 2000, published 2003).
